Assay results: paper PMC7226106, “Population Pharmacokinetics/Pharmacodynamics of Dabrafenib Plus Trametinib in Patients with BRAF-Mutated Metastatic Melanoma” (Cancers, 2020)
Like-named read-outs stand apart in the source and are kept apart here.

How the values were obtained:
[1] = Population pharmacokinetic model of dabrafenib/hydroxy-dabrafenib (NONMEM) from plasma concentrations; format: in vivo, human (patients); conditions: for Vd/F: both sexes, human, plasma, oral, 150 mg twice daily, read-out: V2/F, apparent central volume of distribution of DAB
Excerpt: Seventy-three outpatients treated with DAB were enrolled from July 2015 to June 2017 in this observational multicentric study including three hospitals of the Assistance Publique—Hôpitaux de Paris (Cochin, Henri Mondor, and Avicenne). To be eligible, patients needed to meet the following criteria: a minimal age of 18 years, metastatic BRAF^V600-mutated solid tumors, treatment with DAB or CombiDT with at least one available DAB concentration measurement.
DAB, dabrafenib-d9 (internal standard, IS), and TRA were purchased from LGC Standards (Molsheim, France). A custom synthesis was developed by Shanghai Medicilon (Shanghai, China) for OHD. The plasma concentrations were assayed using a validated high-performance liquid chromatography-tandem mass spectrometry (HPLC-MS/MS) (ATSQ Quantum Ultra®mass spectrometer, ThermoFisher, Les Ulis, France). Chromatographic separation was performed on Accucore® C18 (2.1 × 50 mm; 2.6 µm) analytical column (ThermoFisher Scientific, Les Ulis, France) associated with a guard column packed with the same bonded phase. Two hundred microliters (µL) aliquot of plasma (calibration standard, internal quality control or patient sample) was mixed with 20 µL of IS solution. Then 600 µL acetonitrile with 1% (v/v) formic acid was added. Samples were mixed and centrifuged, and the supernatant was evaporated and recovered with 200 µL of mobile phase: water/methanol (70:30%, v/v) with formic acid (0.1% v/v). Ten microliters of this mixture were injected into the HPLC-MS/MS system. The calibration standards ranged from 10 to 2000 ng/mL for DAB and OHD and from 5 to 50 ng/mL for TRA.
Blood samples were collected in heparinized tubes during the treatment course, and the exact sample time was recorded. Plasma was separated by centrifugation (3000 rpm, 5 min), and stored at −20 °C until analysis.
The non-linear mixed effects modeling program NONMEM v7.4.1 [34] with the Perl-Speaks NONMEM (PsN) Toolkit v4.8.0 [35] was used to build DAB/OHD and TRA models. Pirana v2.9.2 was used to assist in model development. […] Molar units were used for DAB/OHD analyses. Plasma samples with concentrations below the lower limit of quantification of the assay, non-reliable time information about blood sampling, or without dose information were excluded from the analysis.
A stepwise strategy was used to identify the base models that best fitted DAB/OHD and TRA pharmacokinetic data. Different structural models such as one or two compartments, with linear absorption with or without lag time, were compared. DAB and OHD were modeled simultaneously testing multi-compartment models for both compounds. We hypothesized that DAB was cleared by complete oxidation to OHD, since it is not eliminated as unchanged molecule in urine and accounts for less than 22% in feces. Moreover, the first-order absorption rate constant (ka) of DAB was fixed to 1.8 h^−1 according to a previously published value to allow an adequate estimate of all pharmacokinetic parameters. Since DAB and TRA are administered orally, the pharmacokinetic parameters represent apparent values. Exponential errors following a log-normal distribution were assumed for the description of IIV of all the pharmacokinetic parameters. Inter-occasion variability (IOV) was tested in both DAB/OHD and TRA models to assess differences in individual parameters across study occasions. Additive, proportional, and mixed error models were compared to depict the residual unexplained variability (RUV) for both drugs and metabolite. The correlation between DAB and OHD data was tested using the L2 item in NONMEM. […]

[2] = cited from earlier work
[3] = Model-estimated systemic exposure (AUC) in BRAF^V600-mutated MM patients treated with CombiDT; conditions: for AUC: human, plasma, oral
Experimental: (§1) Pharmacokinetic/pharmacodynamic analysis was conducted in BRAF^V600-mutated MM patients concomitantly treated with CombiDT. Regarding safety, the onset of DLT was considered as the clinical endpoint. A DLT was defined as any toxicity leading to dose reduction or temporary or permanent discontinuation of treatment. Regarding survival, the primary end point was progression free survival (PFS), the time from DAB and TRA treatment initiation to documented progression event (either clinical or radiological progression) or death from any cause. The secondary end-point was overall survival (OS), defined as the time from DAB and TRA treatment initiation to death from any cause. Radiographic evidence of progression was defined according to modified Response Evaluation Criteria in Solid Tumor (RECIST) v1.1 [41].
Systemic exposures to DAB, OHD, and TRA (AUCDAB, AUCOHD, and AUCTRA, respectively) were calculated with classic equations, composite DAB and OHD AUC (AUCDAB+OHD) as previously explained and AUCOHD/DAB as the ratio of AUCOHD over AUCDAB. Univariate Fisher and Wilcoxon models were performed to identify which parameters could contribute to the onset of DLT. The following variables were tested: sex, age at treatment initiation, BMI, Eastern Cooperative Oncology Group Performance Status (ECOG PS: grade 0-1 vs ≥2), lactate dehydrogenase (LDH) level (<1.5N vs. ≥1.5N), AUCDAB, AUDOHD, AUCDAB+OHD, and AUCTRA.
Multivariate Cox models according to a stepwise procedure were tested including all variables which were significant at 5% level in the univariate analyses. All the pharmacokinetic/pharmacodynamic analyses were performed using R program v3.6.1 with RStudio v1.1.383 (http://www.r-project.org).

[4] = design: method as in PMID 24408395; conditions: fixed in base and final model and bootstrap; cited from earlier work
[5] = tested on: BRAF^V600-mutated MM patients; experiment: Safety: adverse events and dose-limiting toxicities (DLT) under CombiDT
Experimental: Patients initiated DAB at the recommended daily dose of 150 mg twice daily. In patients treated with CombiDT, TRA was started at 2 mg once daily. Reduced starting doses were allowed at physician discretion based on comorbidities and patients’ general condition. All AE were graded using the National Cancer Institute Common Toxicity Criteria v4.0. DAB treatment was continued until disease progression, unacceptable toxicity, or unfitness to receive it.

[6] = tested on: BRAF^V600-mutated metastatic melanoma; experiment: Survival (PFS, OS) and Cox exposure-survival analysis under CombiDT; format: in vivo, human (patients)
Experimental: as §1
Multivariate Cox models according to a stepwise procedure were tested including all variables which were significant at 5% level in the univariate analyses.

[7] = design: method as in earlier work; conditions: preclinical data; cited from earlier work
[8] = bootstrap median (n = 500 samples)
[9] = reference models built upon clinical trial data

Question: For CC(C)(C)c1nc(-c2cccc(NS(=O)(=O)c3c(F)cccc3F)c2F)c(-c2ccnc(N)n2)s1 [DAB, Dabrafenib], which difference in pharmacokinetics ([1]; DAB monotherapy vs. combiDT (ΔOFV = −2.9, p > 0.05)) is on record?
Answer: did not differ

Question: And the “IIV CL/F, interindividual variability (coefficient of variation)” value (“IIV CL/F, interindividual variability” below) ([1]; base DAB/OHD model)?
Answer: 21.9%

Question: And the “IIV V2/F, interindividual variability (coefficient of variation)” value (shortened to “IIV V2/F, interindividual variability”) ([1]; base DAB/OHD model)?
Answer: 43.0%

Question: And the “IOV, inter-occasion variability on CL/F (coefficient of variation)” value (“IOV, inter-occasion variability on CL/F” for short) ([1]; base DAB/OHD model)?
Answer: 17.2%

Question: What about the “RUV of DAB, residual unexplained variability (proportional)” value ([1]; base DAB/OHD model) of the same compound?
Answer: 49.2%

Question: What about the “Tlag, lag time” value ([1]; base DAB/OHD model) of the same compound?
Answer: 0.50 h

Question: And the “CL/F, apparent clearance of DAB” value ([1]; base DAB/OHD model, n = 73, steady state)?
Answer: 17.7 L/h

Question: And the “CL/F, apparent clearance of DAB” value [1, 8]?
Answer: 19.2 L/h

Question: And the “IIV CL/F, interindividual variability” value [1, 8]?
Answer: 14.4%

Question: What about the “IIV V2/F, interindividual variability” value [1, 8] of the same compound?
Answer: 69.4%

Question: And the “IOV, inter-occasion variability on CL/F” value [1, 8]?
Answer: 17.0%

Question: What about the “RUV of DAB, residual unexplained variability (proportional)” value [1, 8] of the same compound?
Answer: 48.2%

Question: And the “Tlag, lag time” value [1, 8]?
Answer: 0.499 h

Question: And the Vd/F ([1]; base DAB/OHD model)?
Answer: 39.5 L

Question: What about the Vd/F [1, 8] of the same compound?
Answer: 38.3 L

Question: And the Vd/F ([1]; final DAB/OHD model)?
Answer: 39.1 L

Question: What about the “reduction of CL/F” value ([1]; comparing 20-year-old to 90-year-old patients) of the same compound?
Answer: 55%

Question: And the difference in pharmacokinetics ([1]; concomitant proton-pump inhibitor (PPI) intake (ΔOFV = −3.5, p > 0.05))?
Answer: did not differ

Question: What about the “CL/F, apparent clearance of DAB” value ([1]; final DAB/OHD model) of the same compound?
Answer: 19.3 L/h

Question: What about the “IIV CL/F, interindividual variability” value ([1]; final DAB/OHD model) of the same compound?
Answer: 16.0%

Question: And the “IIV V2/F, interindividual variability” value ([1]; final DAB/OHD model)?
Answer: 50.8%

Question: And the “IOV, inter-occasion variability on CL/F” value ([1]; final DAB/OHD model)?
Answer: 17.4%

Question: And the “RUV of DAB, residual unexplained variability (proportional)” value ([1]; final DAB/OHD model)?
Answer: 48.7%

Question: What about the “Tlag, lag time” value ([1]; final DAB/OHD model) of the same compound?
Answer: 0.499 h

Question: What about the “base model variance of clearance explained by covariates (sex, age)” value ([1]; in vivo) of the same compound?
Answer: 47%

Question: What about the “inter-occasion variability (IOV) on CL/F” value ([1]; model building) of the same compound?
Answer: 17%

Question: And the “reduction of CL/F” value ([1]; women vs. men)?
Answer: 17%

Question: What about the “unchanged molecule in feces” value [2] of the same compound?
Answer: less than 22%

Question: And the “first-order absorption rate constant (ka)” value ([2]; previously published value, fixed in the model)?
Answer: 1.8 h⁻¹

Question: What about the CL/F [2, 9] of the same compound?
Answer: 17.0 L/h

Question: And the Q/F [2, 9]?
Answer: 3.30 L/h

Question: What about the lag time [2, 9] of the same compound?
Answer: 0.482 h

Question: And the AUC ([3]; AUC, median (range), patients with DAB-related DLT (n = 12), last AUC before onset of DLT)?
Answer: 9620 ng·h/mL

Question: What about the AUC ([3]; AUC, median (range), patients without DAB-related DLT (n = 40), average AUC over treatment course) of the same compound?
Answer: 7480 ng·h/mL

Question: And the AUC ([3]; mean AUCDAB, after DAB dose reduction, n = 8)?
Answer: 5040 ng·h/mL

Question: And the AUC ([3]; mean AUCDAB, before DAB dose reduction, n = 8)?
Answer: 9010 ng·h/mL

Question: What about the AUC ([3]; median AUCM3 (mean AUC during the first three months of treatment), 30 MM patients of the exposure-survival analysis) of the same compound?
Answer: 7720 ng·h/mL

Question: And the “decrease in mean AUCDAB after DAB dose reduction” value ([3]; n = 8)?
Answer: 1.8 fold

Question: What about the “ka, first-order absorption rate constant” value [4] of the same compound?
Answer: 1.8 fixed 1/h

Question: And the “patients in whom the drug dose was reduced” value ([5]; 52 MM patients)?
Answer: 15%

Question: And the “patients in whom the drug was discontinued permanently” value ([5]; 52 MM patients)?
Answer: 8%

Question: And the “patients who experienced a drug-related DLT” value ([5]; 52 MM patients)?
Answer: 23%

Question: And the “median time to onset of drug-related DLT” value ([5]; human, in vivo)?
Answer: 110 days

Question: And the “patients who discontinued DAB treatment because of cerebral progression” value ([6]; present cohort)?
Answer: 72%

Question: What about the “Risk of Death, HR (CI95%) for AUCM3” value ([6]; univariate Cox model, n = 30) of the same compound?
Answer: 1.02 (0.75–1.39)

Question: And the “Risk of Progression, HR (CI95%) for AUCM3” value ([6]; univariate Cox model, n = 30)?
Answer: 1.04 (0.82–1.32)

Question: And the “passage of the intact blood brain barrier” value [7]?
Answer: may cross intact blood brain barrier
